Residues, ends and D or L forms follow the SMILES beside them. *: point of attachment. AFC = O=c1cc(C(F)(F)F)c2ccc(N*)cc2o1; Cbz = O=C(OCc1ccccc1)*; CH2F = FC*
Assays:
[1] = system: purified Taenia solium cysteine protease; experiment: Competitor assay of low Vmax substrates (vehicles) against high Vmax substrate cocktails (Step III), purified protease; type: biochemical; details: for inhibition with the 1.4% cocktail: 1.4% cocktail (Z-FR-AFC 1X10^-6 M); for inhibition with the final cocktail (7.4%): 7.4% cocktail (five high Vmax substrates, 1X10^-6 M each); for Ki of vehicle: Dixon plot, data not shown
Method: The top 1.4% of substrates (out of 67) in the full panel of substrates with the highest Vmax values were chosen to compose a "TOP 1.4% cocktail". (We employed "Vmax" here although Kcat could also be used). Due to the lower number of substrates, a percentage was not chosen for the "BOTTOM %" substrates. Alternately, all substrates which were not cleaved as determined by a value of 10 uM/hr or less, were chosen to be tested in this step for competitive ability. Hereinafter the term "vehicle" will represent low Vmax substrates that were capable of inhibiting cleavage of the percent cocktails. In this instance, we tested for "vehicles" which inhibited cleavage of the TOP 1.4% cocktail (they were delivered into the active site). Based upon our results from Step II, the top 1.4% cocktail was composed of Z-Phe-Arg-AFC, the highest cleaved substrate.
The experiment began with a competitor test between the noncleaved low Vmax substrates and the highest Vmax substrate, Z-Phe-Arg-AFC. Concentrations were varied between the low Vmax substrate and Z-Phe-Arg-AFC, as described above under "refinement of assay" until a relative inhibition profile was obtained.
The mixture was allowed to equilibrate for a period of 30 minutes. Finally, active purified enzyme was added to the tubes at a concentration that was always 50 times less than the concentration of the high and low Vmax substrates, respectively, in order to insure saturation conditions. This concentration varied from purification to purification and the amount added depended upon the yield and specific activity of the purified protease.
Positive controls were set up in a manner similar to that described for test controls, except that solvent was added in substitution for the low Vmax substrate (in a volume equal to the low Vmax volume addition). All of the substrates could be dissolved in dimethylsulfoxide (DMSO), and therefore, this was the solvent of choice. Negative controls were set up by adding the low Vmax and the high Vmax substrate in a tube without the protease. All potential non-proteolytic induced liberation of AFC was therefore controlled for in this tube (a feature which also monitored stability of the AFC substrates, since these substrates will freely liberate AFC when unstable). A tube set was established for this negative control.
All controls were set up in triplicate, and experiments were repeated a minimum of five times. The assays were incubated at 37°C, for 18 hours overnight.
Percent inhibition was calculated as: %Inhibition = ((AFC positive for "Y"−AFC negative for "Y")−(AFC test−AFC negative for "Y"))/(AFC positive for "Y"−AFC negative for "Y") × 100 [formula]
A 2.9% cocktail of the high Vmax substrates was made. This was composed of Z-FR-AFC and the second most cleaved substrate, Z-FAR-AFC. The vehicles promoted from the initial screenings above were again tested for competitive inhibition ability with the new cocktails. Their concentrations were set identically to those which were "fixed" in the previous protocols. In other words, 8X10^-6 M of the vehicle was added to the culture tube with 1X10^-6 M of Z-FR-AFC and 1X10^-6 M of Z-FAR-AFC. Active protease was added last at a concentration that was 50 times less than the concentration of the high Vmax substrate (to ensure saturating conditions).
In similar experimental fashion, a 4.4%, 5.9%, and 7.4% cocktail were tested with each of the promising vehicles. Each increase in the percentage represented an increase by an additional high Vmax substrate. Each of the individual components in the cocktail were added at 1X10^-6 M each, to 8X10^-6 M of the vehicle. The composition of the cocktails was as follows: 4.4% cocktail: Z-FR-AFC, Z-FAR-AFC, and Z-AAK-AFC (third highest cleaved substrate); 5.9% cocktail: Z-FR-AFC, Z-FAR-AFC, Z-AAK-AFC, and AP-AFC (fourth highest cleaved substrate); 7.4% cocktail: […], Z-FAR-AFC, Z-AAK-AFC, AP-AFC, and Z-VLR-AFC. […]

[2] = system: Trypsin; experiment: Selectivity test (Steps VI and IX), Trypsin; type: biochemical, human; details: pH 8.0, substrate Z-R-AFC
Method: (§1) In order to perform the assay, the vehicle (for Step VI) or inhibitor (for Step IX) were incubated with the appropriate substrate in the correct assay buffer and allowed to equilibrate. Subsequently, the protease was added, and the assay was allowed to incubate for an appropriate time. The concentrations used in this experiment were as follows: Vehicle was set up at 4 X 10^-5 M in final assay buffer; Inhibitor was set up at 3 X 10^-10 M in the final assay buffer. Preferably the dosages employed should be the minimal amount of vehicle or inhibitor necessary to induce inhibition. […] Substrates were set up based upon the preferred substrate for cleavage of the particular enzyme.
(§2) Positive controls were set up similarly as described for test controls, except that a solvent blank was added in substitution for the inhibitor or vehicle (in a volume equal to the volume of inhibitor or vehicle addition). All of the inhibitors and vehicles could be dissolved in dimethylsulfoxide (DMSO), and therefore, this was the solvent of choice. Negative controls were set up by adding the inhibitor or vehicle and the preferred substrates in a tube without the protease. All potential non-proteolytic liberation of AFC was therefore controlled for in this tube.
(§3) All controls were set up in triplicate, and experiments were repeated a minimum of five times.
(§4) Percent inhibition was calculated as: %Inhibition = ((AFC positive for "SI"−AFC negative for "SI")−(AFC test−AFC negative for "SI"))/(AFC positive for "SI"−AFC negative for "SI") × 100 [formula]
(§5) In this preliminary test, we employed the following human-derived enzymes (with indicated mechanistic class in parentheses): Cathepsin B (cysteine), Cathepsin L (cysteine), Cathepsin H (cysteine), Cathepsin D (aspartic), Trypsin (serine), the purified Taenia solium cysteine protease, and the Taenia solium crude mix. Cathepsin B was prepared in an assay buffer of 10 mM L-cysteine in 0.4 M Citrate buffer, pH 6.1, using Z-ARR-AFC as the cleavage substrate. Cathepsin L was prepared in an assay buffer of 10 mM L-cysteine in 0.4 M Citrate buffer, pH 5.5, using Z-FR-AFC as the cleavage substrate. Cathepsin H was prepared in an assay buffer of 10 mM L-cysteine in 0.15 M PBS buffer, pH 6.8, using L-R-AFC as the cleavage substrate. Cathepsin D was prepared in an assay buffer of 0.15 M PBS, pH 7.1, using Z-RGFFP-AFC as the cleavage substrate. Trypsin was prepared in an assay buffer of 0.15 M PBS, pH 8.0, supplemented with 100 mM CaCl2 and with Z-R-AFC as the cleavage substrate. Enzyme was incubated so that it was at least 50 times less than the concentration of substrate in order to insure saturating conditions.

[3] = biological target: Cathepsin L (Homo sapiens, UniProt P07711); experiment: Selectivity test (Steps VI and IX), Cathepsin L; type: biochemical; details: pH 5.5, substrate Z-FR-AFC
Sequence of Cathepsin L (P07711 114-333): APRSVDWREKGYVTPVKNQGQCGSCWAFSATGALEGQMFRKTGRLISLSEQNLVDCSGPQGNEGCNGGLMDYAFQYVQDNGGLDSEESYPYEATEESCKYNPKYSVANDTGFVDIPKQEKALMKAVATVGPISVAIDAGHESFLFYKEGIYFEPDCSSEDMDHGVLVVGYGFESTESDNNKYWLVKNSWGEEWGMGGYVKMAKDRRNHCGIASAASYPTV
Method: as §1, §2, §3, §4, §5

[4] = inhibitor 3 X 10^-10 M, 0.0003 µM

Compound	inhibition with the 1.4% cocktail ([1]; vehicle 8X10^-6 M)	inhibition with the final cocktail (7.4%) ([1]; vehicle 8X10^-6 M)	Ki of vehicle [1]	% inhibition ([2]; vehicle 4 X 10^-5 M, 40 µM)	% inhibition [3, 4]	% inhibition [2, 4]	% inhibition ([3]; vehicle 4 X 10^-5 M)	% inhibition ([3]; vehicle 4 X 10^-5 M, 40 µM)	V Value ([1]; V = P * M, P inhibition with first (1.4%) cocktail, M with last (7.4%) cocktail, vehicle 8X10^-6 M, each cocktail substrate 1X10^-6 M)
CC(C)C[C@H](NC(=O)OCc1ccccc1)C(=O)N[C@@H](CC(C)C)C(=O)N[C@@H](CC(C)C)C(=O)Nc1ccc2c(C(F)(F)F)cc(=O)oc2c1 [Z-LLL-AFC, Z-Leu-Leu-Leu-AFC] (Cbz-Leu-Leu-Leu-{AFC})	greater than 20%	≥ 50%	low Ki value	0%					
CC(C)C[C@H](NC(=O)OCc1ccccc1)C(=O)N[C@@H](CC(C)C)C(=O)N[C@@H](Cc1ccc(O)cc1)C(=O)CF [Z-LLY-FMK, Z-Leu-Leu-Tyr-FMK] (Cbz-Leu-Leu-Tyr-CH2F)					did not inhibit cathepsin L at all	0%			
Mu-Leu-Tyr-AFC [Mu-LY-AFC]		≥ 50%	low Ki value	0%			25%	subtle inhibition	0.450
CC(C)C[C@H](NC(=O)OCc1ccccc1)C(=O)N[C@@H](CC(C)C)C(=O)N[C@@H](Cc1ccc(O)cc1)C(=O)Nc1ccc2c(C(F)(F)F)cc(=O)oc2c1 [Z-LLY-AFC, Z-Leu-Leu-Tyr-AFC] (Cbz-Leu-Leu-Tyr-{AFC})	greater than 20%	≥ 50%	low Ki value	0%					
